Reference: ChEMBL document CHEMBL1201862, “PubChem BioAssay data set” (2004)
Each block holds one molecule with its values, some of them ahead of it. Calls of active or inactive are those of the source.

Legend:
[1] = target: Hexokinase (Trypanosoma brucei, UniProt Q38C41); test: Confirmation assay for inhibitors of Trypanosoma brucei hexokinase 1-Analogue-first series. [Related pubchem assays (depositor defined):AID1430, AID1632, AID2516, AID2560, AID2579, AID2600, AID449725, AID492951]; format: functional
[2] = target: T1, Kappa-type opioid receptor (Homo sapiens, UniProt P41145); test: SAR analysis of small molecule antagonists of the kappa opioid receptor via a luminescent beta-arrestin assay - Set 4. [Related pubchem assays (depositor defined):AID1777, AID1778, AID1785, AID1786, AID1966, AID2133, AID2136, AID2285]; format: functional
[3] = target: Mu-type opioid receptor (Homo sapiens, UniProt P35372); test: SAR Analysis of Antagonists of the MOR Receptor using an Image-Based Assay - Set 3. [Related pubchem assays (depositor defined):AID1777, AID1785, AID1786, AID1966, AID2133, AID2136, AID2284, AID2285, AID2420]; format: functional
[4] = target: T1, Kappa-type opioid receptor; test: SAR analysis of Antagonists of the Kappa Opioid Receptor (KOR) using an Image-Based Assay - Set 4. [Related pubchem assays (depositor defined):AID1777, AID1785]; format: functional
[5] = target: Delta-type opioid receptor (Homo sapiens, UniProt P41143); test: SAR Analysis of Antagonists of the DOR Receptor using an Image-Based Assay - Set 3. [Related pubchem assays (depositor defined):AID1777, AID1785]; format: functional;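 also: U2OS cells expressing DOR1 and beta-arrestin GFP stimulated with 100 nM SNC80; imaging of GFP-tagged beta-arrestin moving into spots after receptor activation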
[6] = target: G-protein coupled receptor 55 (Homo sapiens, UniProt Q9Y2T6); test: GPR55 agonists via beta-arrestin recruitment, primary screen, imaging, U2OS cells, beta-arrestin-GFP redistribution (AID 1961); format: functional
[7] = target: Melanin-concentrating hormone receptor 1 (Homo sapiens, UniProt Q99705); test: Fluorescence-based counterscreen for antagonists of the G-protein coupled receptor 7 (GPR7): cell-based high throughput dose response assay to identify antagonists of the melanin-concentrating hormone receptor 1 (MCHR1).; format: functional
[8] = target: T2, Neuropeptides B/W receptor type 1 (Homo sapiens, UniProt P48145); test: Fluorescence-based dose response cell-based high throughput screening assay to identify antagonists of the G-protein coupled receptor 7 (GPR7). [Related pubchem assays: 1952 (Screening assay (GPR7 antagonists).), 1880 (Summary AID.)]; format: functional
T2 sequence (P48145 whole entry): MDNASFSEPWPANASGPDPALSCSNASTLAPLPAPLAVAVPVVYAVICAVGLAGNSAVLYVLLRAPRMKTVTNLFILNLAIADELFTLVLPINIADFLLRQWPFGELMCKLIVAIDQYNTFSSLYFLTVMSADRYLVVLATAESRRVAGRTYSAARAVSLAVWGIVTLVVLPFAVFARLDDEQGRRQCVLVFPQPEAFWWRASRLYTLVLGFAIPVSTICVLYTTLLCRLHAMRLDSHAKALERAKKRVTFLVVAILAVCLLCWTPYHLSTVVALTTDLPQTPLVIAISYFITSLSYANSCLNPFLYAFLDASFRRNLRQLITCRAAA

[9] = target: T3, SUMO-activating enzyme (Homo sapiens, UniProt Q9UBT2); test: SUMOylation inhibitor hit validation, confirmation, SUMOylation inhibitor project, biochemical, AlphaScreen (AID 2018); format: functional
[10] = target: Phospholipase A2 (Homo sapiens, UniProt P04054); format: functional;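 also: confirmatory dose-response counterscreen on phospholipase A2, testing hits that came from an ultra-high-throughput screen for ATG4B inhibitors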
[11] = target: T4, RNA-binding protein pos-1 (Caenorhabditis elegans, UniProt G5EF15); test: inhibitors of POS-1/mex-3 RNA binding, dose response, biochemical, fluorescence polarization (AID 1964);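 also: purified POS-1 fused to maltose binding protein made in E. coli; potency of compounds blocking POS-1 binding to fluorescent RNA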
T4 sequence (G5EF15 whole entry): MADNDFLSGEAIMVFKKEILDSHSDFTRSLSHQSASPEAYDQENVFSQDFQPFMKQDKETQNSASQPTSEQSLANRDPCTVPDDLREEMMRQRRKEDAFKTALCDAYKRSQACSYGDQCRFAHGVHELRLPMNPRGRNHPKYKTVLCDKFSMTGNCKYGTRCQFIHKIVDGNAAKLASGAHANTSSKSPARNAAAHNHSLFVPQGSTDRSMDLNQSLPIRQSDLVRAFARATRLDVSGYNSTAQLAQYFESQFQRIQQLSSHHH

[12] = target: T5, Cysteine protease ATG4B (Homo sapiens, UniProt Q9Y4P1); format: functional;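 also: Fluorescence-based dose-response confirmation assay measuring inhibition of ATG4B activity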
T5 sequence (Q9Y4P1 whole entry): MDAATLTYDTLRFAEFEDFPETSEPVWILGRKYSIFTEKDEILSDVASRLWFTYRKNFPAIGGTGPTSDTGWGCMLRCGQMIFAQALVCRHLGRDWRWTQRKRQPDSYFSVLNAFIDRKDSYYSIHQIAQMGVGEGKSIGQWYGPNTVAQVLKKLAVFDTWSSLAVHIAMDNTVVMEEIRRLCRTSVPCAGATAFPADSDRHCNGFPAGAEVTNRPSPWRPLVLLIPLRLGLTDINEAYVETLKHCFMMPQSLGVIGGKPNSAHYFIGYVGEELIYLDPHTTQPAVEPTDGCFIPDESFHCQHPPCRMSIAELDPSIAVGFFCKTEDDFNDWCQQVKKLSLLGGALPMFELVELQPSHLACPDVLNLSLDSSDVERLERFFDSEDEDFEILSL

[13] = target: T3, SUMO-activating enzyme; test: inhibitors of in vitro SUMOylation cascade, primary screen, biochemical, HTRF, uHTS (AID 2006); format: protein-complex assay
[14] = target: T6, Carboxy-terminal domain RNA polymerase II polypeptide A small phosphatase 1 (Homo sapiens, UniProt Q9GZU7); test: inhibitors of CTDSP1, concentration-response testing, biochemical assay, absorbance-based, actives from ultra-high-throughput screening (AID 540297); format: functional
T6 sequence (Q9GZU7 whole entry): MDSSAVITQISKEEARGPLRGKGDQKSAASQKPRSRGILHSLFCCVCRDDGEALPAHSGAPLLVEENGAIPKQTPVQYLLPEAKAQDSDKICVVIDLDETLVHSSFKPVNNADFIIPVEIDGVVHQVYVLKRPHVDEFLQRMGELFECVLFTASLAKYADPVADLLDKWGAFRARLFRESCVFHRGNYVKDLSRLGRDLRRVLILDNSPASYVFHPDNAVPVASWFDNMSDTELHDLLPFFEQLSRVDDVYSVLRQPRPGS

[15] = target: T7, Zinc finger protein mex-5 (Caenorhabditis elegans, UniProt Q9XUB2); test: MEX-5/TCR-2 RNA interaction inhibitors, dose response, biochemical, C. elegans, fluorescence polarization (AID 1960)
T7 sequence (Q9XUB2 whole entry): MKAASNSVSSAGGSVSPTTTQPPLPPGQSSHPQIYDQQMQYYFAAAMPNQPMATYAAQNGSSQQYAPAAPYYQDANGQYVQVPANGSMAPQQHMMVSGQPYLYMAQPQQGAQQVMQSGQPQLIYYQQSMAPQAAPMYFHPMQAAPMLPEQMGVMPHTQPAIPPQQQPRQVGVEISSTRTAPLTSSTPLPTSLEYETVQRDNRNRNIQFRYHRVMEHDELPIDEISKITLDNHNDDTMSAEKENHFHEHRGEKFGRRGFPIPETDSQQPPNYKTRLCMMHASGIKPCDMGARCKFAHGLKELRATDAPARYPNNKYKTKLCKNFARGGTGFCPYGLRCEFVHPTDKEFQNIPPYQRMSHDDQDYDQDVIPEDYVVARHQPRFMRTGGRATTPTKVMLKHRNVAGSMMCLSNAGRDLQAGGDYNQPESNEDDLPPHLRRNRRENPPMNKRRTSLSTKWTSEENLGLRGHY

[16] = target: T8, CAAX prenyl protease 2 (Saccharomyces cerevisiae S288c, UniProt Q03530); format: biochemical
T8 sequence (Q03530 whole entry): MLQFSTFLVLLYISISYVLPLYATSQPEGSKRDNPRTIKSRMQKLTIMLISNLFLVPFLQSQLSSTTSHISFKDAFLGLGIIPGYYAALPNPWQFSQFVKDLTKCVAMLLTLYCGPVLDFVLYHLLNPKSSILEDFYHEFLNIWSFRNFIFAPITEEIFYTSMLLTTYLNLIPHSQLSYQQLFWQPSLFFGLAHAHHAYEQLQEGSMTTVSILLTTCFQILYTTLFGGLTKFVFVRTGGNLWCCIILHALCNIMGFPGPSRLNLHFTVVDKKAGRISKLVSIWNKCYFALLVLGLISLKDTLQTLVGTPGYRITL

[17] = target: Trypsin (Sus scrofa, UniProt P00761); test: porcine trypsin inhibitors, dose response, selectivity assay for Rce1 protease inhibitor project, biochemical, quenched peptide fluorescence, cherry-pick (AID 488789)
[18] = target: T9, Tyrosine-protein phosphatase non-receptor type 7 (Homo sapiens, UniProt P35236); test: redox-dependent HePTP inhibition, mechanism study, biochemical, fluorescence (AID 2068); format: functional
T9 sequence (P35236 whole entry): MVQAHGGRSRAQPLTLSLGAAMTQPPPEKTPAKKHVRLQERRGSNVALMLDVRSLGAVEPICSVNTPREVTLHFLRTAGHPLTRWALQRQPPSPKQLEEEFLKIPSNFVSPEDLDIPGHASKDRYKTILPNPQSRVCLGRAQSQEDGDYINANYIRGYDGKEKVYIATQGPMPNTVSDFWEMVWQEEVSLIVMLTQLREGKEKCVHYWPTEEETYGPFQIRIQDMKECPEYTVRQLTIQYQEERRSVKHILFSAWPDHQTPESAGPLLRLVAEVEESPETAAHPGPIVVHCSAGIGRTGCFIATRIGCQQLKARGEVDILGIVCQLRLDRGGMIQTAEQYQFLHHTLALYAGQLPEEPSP

[19] = target: T10, Dual specificity protein phosphatase 6 (Rattus norvegicus, UniProt Q64346); format: functional;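 also: confirmatory in vitro dose-response testing of MKP-3 inhibition; recombinant His-tagged MKP-3 made in E. coli BL21 with OMFP substrate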
T10 sequence (Q64346 whole entry): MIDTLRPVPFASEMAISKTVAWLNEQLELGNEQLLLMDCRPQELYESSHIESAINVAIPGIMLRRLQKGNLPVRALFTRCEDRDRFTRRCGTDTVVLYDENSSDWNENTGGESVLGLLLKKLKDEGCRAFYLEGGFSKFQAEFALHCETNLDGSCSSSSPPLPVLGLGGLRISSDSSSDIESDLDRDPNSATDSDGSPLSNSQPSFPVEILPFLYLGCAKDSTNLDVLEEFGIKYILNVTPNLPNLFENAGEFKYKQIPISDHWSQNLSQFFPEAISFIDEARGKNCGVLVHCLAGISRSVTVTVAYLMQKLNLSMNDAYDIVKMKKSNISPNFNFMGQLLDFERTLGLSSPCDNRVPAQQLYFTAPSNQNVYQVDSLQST

[20] = target: T11, Caspase-6 (Homo sapiens, UniProt P55212); test: human caspase-6 inhibitors, dose response, biochemical, VEID-R110 fluorescence, cherry-pick (AID 720632)
T11 sequence (P55212 whole entry): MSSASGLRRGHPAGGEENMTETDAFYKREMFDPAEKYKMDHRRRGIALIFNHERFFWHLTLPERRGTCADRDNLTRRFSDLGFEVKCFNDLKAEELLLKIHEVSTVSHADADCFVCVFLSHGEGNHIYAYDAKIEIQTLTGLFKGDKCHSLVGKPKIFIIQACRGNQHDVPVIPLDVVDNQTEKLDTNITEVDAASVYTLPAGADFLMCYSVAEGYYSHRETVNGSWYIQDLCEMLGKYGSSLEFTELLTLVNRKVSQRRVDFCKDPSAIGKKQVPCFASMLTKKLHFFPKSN

[21] = target: Large T antigen (Simian virus 40, UniProt P03070); format: functional, Betapolyomavirus macacae;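 also: Confirmatory-stage PubChem screen for compounds that inhibit SV40 T antigen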
[22] = target: DNA (cytosine-5)-methyltransferase 1 (Homo sapiens, UniProt P26358); test: DNMT1 methyltransferase inhibitors, confirmation, biochemical, fluorescent molecular beacon (AID 602386); format: functional
[23] = target: ORF 73 (Human herpesvirus 8, UniProt O40947); test: inhibitors of C-LANA binding to LBS DNA, dose response, biochemical, fluorescence polarization, cherry-picked samples (AID 504725); design: species or system Human gammaherpesvirus 8;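 also: fluorescence polarization of a labeled DNA duplex reporting LANA DNA binding; potency is for inhibitors that block LANA binding to the DNA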
[24] = target: Induced myeloid leukemia cell differentiation protein Mcl-1 (Homo sapiens, UniProt Q07820); format: functional
Induced myeloid leukemia cell differentiation protein Mcl-1, sequence (Q07820 whole entry): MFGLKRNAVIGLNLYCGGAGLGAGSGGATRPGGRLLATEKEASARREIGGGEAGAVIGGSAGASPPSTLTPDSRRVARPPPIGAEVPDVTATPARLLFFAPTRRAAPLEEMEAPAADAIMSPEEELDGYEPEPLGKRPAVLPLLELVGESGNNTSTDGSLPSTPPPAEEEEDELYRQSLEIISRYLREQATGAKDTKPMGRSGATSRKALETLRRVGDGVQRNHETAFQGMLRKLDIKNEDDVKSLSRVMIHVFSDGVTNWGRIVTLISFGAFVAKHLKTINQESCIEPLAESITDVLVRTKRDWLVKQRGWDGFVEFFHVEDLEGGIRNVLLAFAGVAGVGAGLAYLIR

T1 sequence (P41145 whole entry): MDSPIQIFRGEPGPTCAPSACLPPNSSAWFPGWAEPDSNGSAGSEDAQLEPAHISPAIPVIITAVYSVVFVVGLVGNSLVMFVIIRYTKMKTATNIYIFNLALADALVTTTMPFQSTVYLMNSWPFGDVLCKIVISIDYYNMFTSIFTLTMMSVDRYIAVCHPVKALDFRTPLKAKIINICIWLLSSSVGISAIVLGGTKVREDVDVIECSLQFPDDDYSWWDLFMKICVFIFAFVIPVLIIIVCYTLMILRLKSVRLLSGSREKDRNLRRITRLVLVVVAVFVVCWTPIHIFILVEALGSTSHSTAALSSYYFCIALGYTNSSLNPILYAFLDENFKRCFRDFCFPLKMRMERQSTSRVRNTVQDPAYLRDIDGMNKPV
Trypsin, sequence (P00761 whole entry): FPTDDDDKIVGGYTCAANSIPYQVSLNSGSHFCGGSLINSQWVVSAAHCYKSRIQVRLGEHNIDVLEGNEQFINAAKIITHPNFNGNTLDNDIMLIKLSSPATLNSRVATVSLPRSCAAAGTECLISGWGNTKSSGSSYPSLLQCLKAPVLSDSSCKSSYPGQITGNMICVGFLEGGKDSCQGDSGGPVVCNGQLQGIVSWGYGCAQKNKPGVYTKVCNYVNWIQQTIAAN
Hexokinase, sequence (Q38C41 whole entry): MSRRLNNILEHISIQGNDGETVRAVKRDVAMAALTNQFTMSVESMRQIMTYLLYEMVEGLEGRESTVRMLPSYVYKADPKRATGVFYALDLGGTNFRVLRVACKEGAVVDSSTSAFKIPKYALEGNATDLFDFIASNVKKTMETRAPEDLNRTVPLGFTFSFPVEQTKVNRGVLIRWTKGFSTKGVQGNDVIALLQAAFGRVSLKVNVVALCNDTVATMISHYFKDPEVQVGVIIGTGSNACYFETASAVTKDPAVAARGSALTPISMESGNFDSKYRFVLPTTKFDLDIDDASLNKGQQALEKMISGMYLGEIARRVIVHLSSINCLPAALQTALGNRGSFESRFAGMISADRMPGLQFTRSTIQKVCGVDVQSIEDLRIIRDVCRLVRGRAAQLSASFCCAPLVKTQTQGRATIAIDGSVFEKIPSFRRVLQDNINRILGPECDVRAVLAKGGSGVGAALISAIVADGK
Delta-type opioid receptor, sequence (P41143 whole entry): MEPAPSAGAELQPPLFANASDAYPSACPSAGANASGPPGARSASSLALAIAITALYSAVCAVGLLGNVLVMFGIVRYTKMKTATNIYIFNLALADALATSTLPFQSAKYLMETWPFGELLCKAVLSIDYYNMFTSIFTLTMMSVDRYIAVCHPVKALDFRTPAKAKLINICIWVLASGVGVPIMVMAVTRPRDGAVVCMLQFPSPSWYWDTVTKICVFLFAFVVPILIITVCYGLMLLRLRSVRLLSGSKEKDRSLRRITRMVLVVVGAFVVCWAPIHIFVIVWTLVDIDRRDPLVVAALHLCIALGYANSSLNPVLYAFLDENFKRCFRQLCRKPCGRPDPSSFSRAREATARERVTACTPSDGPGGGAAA
T3 sequence (Q9UBE0 whole entry): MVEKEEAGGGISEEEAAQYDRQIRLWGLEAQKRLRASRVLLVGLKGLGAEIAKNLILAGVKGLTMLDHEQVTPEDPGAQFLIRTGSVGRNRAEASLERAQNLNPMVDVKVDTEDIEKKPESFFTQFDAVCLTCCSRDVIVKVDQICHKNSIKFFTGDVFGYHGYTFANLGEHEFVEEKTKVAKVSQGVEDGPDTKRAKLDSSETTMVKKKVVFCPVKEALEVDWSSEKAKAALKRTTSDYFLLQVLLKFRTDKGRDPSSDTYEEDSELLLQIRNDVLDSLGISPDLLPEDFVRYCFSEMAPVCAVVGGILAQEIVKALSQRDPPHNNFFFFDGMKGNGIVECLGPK
T3 sequence (Q9UBT2 whole entry): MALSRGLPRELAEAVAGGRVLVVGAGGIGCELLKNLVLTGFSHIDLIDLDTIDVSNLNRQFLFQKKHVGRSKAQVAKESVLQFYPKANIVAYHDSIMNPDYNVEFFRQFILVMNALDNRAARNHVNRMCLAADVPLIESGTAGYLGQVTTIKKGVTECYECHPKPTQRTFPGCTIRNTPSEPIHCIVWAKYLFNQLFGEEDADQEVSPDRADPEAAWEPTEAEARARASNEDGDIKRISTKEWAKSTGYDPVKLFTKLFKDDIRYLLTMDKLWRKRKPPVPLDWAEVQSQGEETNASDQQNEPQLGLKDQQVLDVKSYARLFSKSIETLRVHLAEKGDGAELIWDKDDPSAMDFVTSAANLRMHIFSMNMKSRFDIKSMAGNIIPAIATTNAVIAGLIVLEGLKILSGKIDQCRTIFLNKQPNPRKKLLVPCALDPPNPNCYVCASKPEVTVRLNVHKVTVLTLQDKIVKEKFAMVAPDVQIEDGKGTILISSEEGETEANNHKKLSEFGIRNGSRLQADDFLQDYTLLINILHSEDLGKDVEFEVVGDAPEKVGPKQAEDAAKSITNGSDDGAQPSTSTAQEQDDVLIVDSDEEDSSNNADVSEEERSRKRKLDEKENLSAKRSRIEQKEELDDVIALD
Mu-type opioid receptor, sequence (P35372 whole entry): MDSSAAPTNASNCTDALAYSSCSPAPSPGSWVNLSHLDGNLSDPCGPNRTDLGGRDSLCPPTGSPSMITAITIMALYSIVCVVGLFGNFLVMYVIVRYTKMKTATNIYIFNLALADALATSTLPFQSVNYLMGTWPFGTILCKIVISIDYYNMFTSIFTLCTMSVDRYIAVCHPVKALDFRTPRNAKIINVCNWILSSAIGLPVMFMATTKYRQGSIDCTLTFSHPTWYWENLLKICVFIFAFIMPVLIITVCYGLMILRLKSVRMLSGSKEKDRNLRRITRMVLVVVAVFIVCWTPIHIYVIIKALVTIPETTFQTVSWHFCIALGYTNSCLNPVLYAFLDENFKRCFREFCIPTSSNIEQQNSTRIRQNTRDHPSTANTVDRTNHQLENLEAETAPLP
G-protein coupled receptor 55, sequence (Q9Y2T6 whole entry): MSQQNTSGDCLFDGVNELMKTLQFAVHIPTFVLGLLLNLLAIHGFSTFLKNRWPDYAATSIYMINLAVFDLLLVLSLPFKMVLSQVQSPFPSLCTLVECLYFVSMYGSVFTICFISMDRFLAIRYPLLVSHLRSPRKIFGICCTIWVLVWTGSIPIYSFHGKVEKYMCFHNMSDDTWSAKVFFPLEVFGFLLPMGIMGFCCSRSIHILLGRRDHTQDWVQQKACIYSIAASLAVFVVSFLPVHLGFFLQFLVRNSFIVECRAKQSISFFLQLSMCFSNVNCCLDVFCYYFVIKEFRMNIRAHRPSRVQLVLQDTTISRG
Melanin-concentrating hormone receptor 1, sequence (Q99705 whole entry): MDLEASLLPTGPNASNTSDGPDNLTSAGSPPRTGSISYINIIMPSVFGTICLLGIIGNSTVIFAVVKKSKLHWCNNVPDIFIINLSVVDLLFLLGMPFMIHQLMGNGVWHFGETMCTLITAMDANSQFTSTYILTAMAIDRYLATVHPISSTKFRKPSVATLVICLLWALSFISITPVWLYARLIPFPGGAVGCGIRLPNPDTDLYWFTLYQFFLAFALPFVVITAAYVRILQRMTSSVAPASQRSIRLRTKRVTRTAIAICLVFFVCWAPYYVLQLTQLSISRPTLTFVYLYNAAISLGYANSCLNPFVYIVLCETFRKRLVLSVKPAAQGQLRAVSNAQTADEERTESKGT
Large T antigen, sequence (P03070 whole entry): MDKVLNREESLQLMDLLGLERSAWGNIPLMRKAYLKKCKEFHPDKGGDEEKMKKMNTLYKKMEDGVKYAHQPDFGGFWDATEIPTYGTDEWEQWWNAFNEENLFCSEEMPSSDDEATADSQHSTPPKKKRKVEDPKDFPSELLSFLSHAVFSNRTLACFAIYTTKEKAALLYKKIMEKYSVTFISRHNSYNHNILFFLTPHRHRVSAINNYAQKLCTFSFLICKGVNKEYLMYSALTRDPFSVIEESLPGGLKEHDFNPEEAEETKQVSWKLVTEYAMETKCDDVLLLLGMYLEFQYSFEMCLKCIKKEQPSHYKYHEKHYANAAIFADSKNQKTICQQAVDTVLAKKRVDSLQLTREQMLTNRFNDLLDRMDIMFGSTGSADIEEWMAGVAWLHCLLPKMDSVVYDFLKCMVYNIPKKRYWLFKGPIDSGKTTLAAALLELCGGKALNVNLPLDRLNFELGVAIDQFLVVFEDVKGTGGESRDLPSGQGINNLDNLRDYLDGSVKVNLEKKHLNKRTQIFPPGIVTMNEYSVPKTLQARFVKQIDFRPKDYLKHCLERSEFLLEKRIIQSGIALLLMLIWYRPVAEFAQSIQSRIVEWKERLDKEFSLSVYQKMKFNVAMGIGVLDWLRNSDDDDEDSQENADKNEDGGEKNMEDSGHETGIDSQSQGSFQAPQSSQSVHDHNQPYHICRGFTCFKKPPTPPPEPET
Phospholipase A2, sequence (P04054 whole entry, the tested form may be a part): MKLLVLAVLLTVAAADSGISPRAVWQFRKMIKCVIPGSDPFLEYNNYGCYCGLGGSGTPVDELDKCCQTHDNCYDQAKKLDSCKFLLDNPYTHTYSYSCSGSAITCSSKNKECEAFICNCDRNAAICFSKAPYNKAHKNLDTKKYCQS

SMILES: COc1cccc(CC(=O)Nc2cc(Cl)ccc2C(=O)O)c1
- IC50 [1]: > 25 µM (inactive)

SMILES: COc1ccc(N2CCN(CCNC(=O)Cn3c(=O)c4cccn4c4c(C)ccnc43)CC2)cc1
- IC50 [2]: 14.1 µM (inactive)
- IC50 [3]: > 32 µM (inactive)
- IC50 [4]: > 32 µM (inactive)
- IC50 [5]: > 32 µM (inactive)

SMILES: Cc1ccc(Cl)cc1N1CCN(C(=O)c2ccc3c(c2)CCN3S(C)(=O)=O)CC1
- EC50 [6]: 21 µM (inactive)
- IC50 [7]: 16.9 µM (not active)
- IC50 [8]: 23.5 µM (not active)

SMILES: O=C(Cn1sc2ccccc2c1=O)Nc1ccccc1C(F)(F)F
- IC50 [1]: > 25 µM (inactive)

SMILES: O=C(NCCc1cccnc1)c1cc(COc2ccc(F)cc2Cl)on1
- AC50 [16]: 10.7 µM (active)
- AC50 [17]: 8.75 µM (active)

SMILES: CCC(C)c1ccc(S(=O)(=O)NCc2ccc(C(=O)NCCN(Cc3ccccc3)C(C)C)cc2)cc1 (stereo not drawn)
- IC50 [2]: 1.6 µM (active)
- IC50 [3]: > 32 µM (inactive)
- IC50 [4]: 2.01 µM (active)
- IC50 [5]: > 32 µM (inactive)

Results, then the molecule that gave them:

- IC50 [9]: 2.85 µM (active)
- IC50 [10]: 1.77 µM (active)
- EC50 [11]: 2.41 µM (active)
- IC50 [12]: 2.05 µM (active)
- IC50 [13]: 9.45 µM (active)
- IC50 [14]: 1.44 µM (active)
- EC50 [15]: 1.68 µM (active)
SMILES: Cc1ccccc1NC(=O)CN1C(=O)S/C(=C\c2ccc(-c3cc(C(=O)O)ccc3C)o2)C1=O

- AC50 [16]: 12.1 µM (active)
- AC50 [17]: 12 µM (active)
SMILES: Cc1cc(C)n2cc(CSCC(=O)O)nc2n1

- IC50 [18]: 13.1 µM (active)
- IC50 [19]: > 100 µM (inactive)
SMILES: COc1cc(C(=S)NC(C)(C)C)ccc1O

- AC50 [20]: 11.1 µM (active)
- IC50 [21]: 23.1 µM (active)
- IC50 [22]: 6.74 µM (active)
- AC50 [23]: 22.1 µM (active)
- IC50 [24]: 4.87 µM (active)
SMILES: O=C(O)Cc1c[nH]c2cccc(O)c12

- IC50 [18]: 0.766 µM (active)
- IC50 [19]: > 100 µM (inactive)
SMILES: CCC(CC)NC(=S)c1ccc(O)c(OC)c1
